# Legend:
# Assay in all cases: relative viability (nuclei count vs DMSO), 5 days (fraction); higher = more cells survive
# ABC-1 = test system: ABC-1
# In short: (§1)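 Five library-drug doses in √10 steps were combined with a fixed anchor-drug dose, or a single drug was given alone, by pin tool to lung cancer cell lines in 1536-well plates the day after seeding. Nuclei were stained and counted after 5 days. Relative viability is the nuclei count in treated wells over that in vehicle wells, taken as the median of duplicate plates.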
# CAL-12T = test system: CAL-12T
# In short: as §1
# ChaGo-K-1 = test system: ChaGo-K-1
# In short: as §1
# HCC-366 = test system: HCC-366
# In short: as §1
# HCC-78 = test system: HCC-78
# In short: as §1
# LC-2-ad = test system: LC-2-ad
# In short: as §1
# LOU-NH91 = test system: LOU-NH91
# In short: as §1
# LU99A = test system: LU99A
# In short: as §1
# NCI-H1395 = test system: NCI-H1395
# In short: as §1
# NCI-H1651 = test system: NCI-H1651
# In short: as §1
# NCI-H1734 = test system: NCI-H1734
# In short: as §1
# NCI-H1755 = test system: NCI-H1755
# In short: as §1
structure (smiles),measurement,setting,value
NC(=O)Nc1cc(-c2cccc(F)c2)sc1C(=O)N[C@H]1CCCNC1 [AZD7762] + CS(=O)(=O)N1CCN(Cc2cc3nc(-c4cccc5[nH]ncc45)nc(N4CCOCC4)c3s2)CC1 [Pictilisib] (partner 1 µM),relative viability,ABC-1; first compound 0.01 µM,0.72
same,relative viability,ABC-1; first compound 0.03162 µM,0.84
same,relative viability,ABC-1; first compound 0.1 µM,0.611
same,relative viability,ABC-1; first compound 0.3162 µM,0.462
same,relative viability,ABC-1; first compound 1 µM,0.245
same,relative viability,CAL-12T; first compound 0.01 µM,0.413
same,relative viability,CAL-12T; first compound 0.03162 µM,0.521
same,relative viability,CAL-12T; first compound 0.1 µM,0.385
same,relative viability,CAL-12T; first compound 0.3162 µM,0.405
same,relative viability,CAL-12T; first compound 1 µM,0.238
same,relative viability,ChaGo-K-1; first compound 0.01 µM,0.656
same,relative viability,ChaGo-K-1; first compound 0.03162 µM,0.815
same,relative viability,ChaGo-K-1; first compound 0.1 µM,0.846
same,relative viability,ChaGo-K-1; first compound 0.3162 µM,0.675
same,relative viability,ChaGo-K-1; first compound 1 µM,0.562
same,relative viability,HCC-366; first compound 0.01 µM,0.153
same,relative viability,HCC-366; first compound 0.03162 µM,0.128
same,relative viability,HCC-366; first compound 0.1 µM,0.213
same,relative viability,HCC-366; first compound 0.3162 µM,0.137
same,relative viability,HCC-366; first compound 1 µM,0.133
same,relative viability,HCC-78; first compound 0.01 µM,0.241
same,relative viability,HCC-78; first compound 0.03162 µM,0.228
same,relative viability,HCC-78; first compound 0.1 µM,0.205
same,relative viability,HCC-78; first compound 0.3162 µM,0.213
same,relative viability,HCC-78; first compound 1 µM,0.18
same,relative viability,LC-2-ad; first compound 0.01 µM,0.438
same,relative viability,LC-2-ad; first compound 0.03162 µM,0.39
same,relative viability,LC-2-ad; first compound 0.1 µM,0.321
same,relative viability,LC-2-ad; first compound 0.3162 µM,0.308
same,relative viability,LC-2-ad; first compound 1 µM,0.196
same,relative viability,LOU-NH91; first compound 0.01 µM,0.546
same,relative viability,LOU-NH91; first compound 0.03162 µM,0.555
same,relative viability,LOU-NH91; first compound 0.1 µM,0.473
same,relative viability,LOU-NH91; first compound 0.3162 µM,0.489
same,relative viability,LOU-NH91; first compound 1 µM,0.595
same,relative viability,LU99A; first compound 0.01 µM,0.381
same,relative viability,LU99A; first compound 0.03162 µM,0.331
same,relative viability,LU99A; first compound 0.1 µM,0.324
same,relative viability,LU99A; first compound 0.3162 µM,0.319
same,relative viability,LU99A; first compound 1 µM,0.207
same,relative viability,NCI-H1395; first compound 0.01 µM,0.663
same,relative viability,NCI-H1395; first compound 0.03162 µM,0.643
same,relative viability,NCI-H1395; first compound 0.1 µM,0.674
same,relative viability,NCI-H1395; first compound 0.3162 µM,0.514
same,relative viability,NCI-H1395; first compound 1 µM,0.403
same,relative viability,NCI-H1651; first compound 0.01 µM,0.755
same,relative viability,NCI-H1651; first compound 0.03162 µM,0.566
same,relative viability,NCI-H1651; first compound 0.1 µM,0.556
same,relative viability,NCI-H1651; first compound 0.3162 µM,0.457
same,relative viability,NCI-H1651; first compound 1 µM,0.226
same,relative viability,NCI-H1734; first compound 0.01 µM,0.538
same,relative viability,NCI-H1734; first compound 0.03162 µM,0.535
same,relative viability,NCI-H1734; first compound 0.1 µM,0.524
same,relative viability,NCI-H1734; first compound 0.3162 µM,0.384
same,relative viability,NCI-H1734; first compound 1 µM,0.293
same,relative viability,NCI-H1755; first compound 0.01 µM,0.471
same,relative viability,NCI-H1755; first compound 0.03162 µM,0.469

# Source: the supplement of paper PMC10307832
